PubChem BioAssay (NCI)
Several values for one entry are separate records, joined by “and”; a condition that tells them apart may be missing. Identical values can stand only once.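 96-well plates; 48 h exposure; 5 concentrations. Endpoints by linear interpolation between flanking doses. Not reached: highest tested concentration assigned. GI50: concentration for 50% inhibition of growth. TGI is the concentration that stops growth completely.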

Tests used:
Assay in all cases: NCI tumour cell line growth inhibition, 48 h
HL-60(TB) leukemia = system: HL-60(TB) leukemia
U251 CNS = system: U251 CNS
SNB-75 CNS = system: SNB-75 CNS
SNB-19 CNS = system: SNB-19 CNS
RPMI-8226 leukemia = system: RPMI-8226 leukemia
NCI-H226 lung = system: NCI-H226 lung
SK-MEL-28 melanoma = system: SK-MEL-28 melanoma
T-47D breast = system: T-47D breast
HS 578T breast = system: HS 578T breast
ACHN renal = system: ACHN renal

Row | Compound | GI50 (HL-60(TB) leukemia) [nM] | TGI (HL-60(TB) leukemia) [µM] | GI50 (U251 CNS) [nM] | TGI (U251 CNS) | GI50 (SNB-75 CNS) [µM] | TGI (SNB-75 CNS) | GI50 (SNB-19 CNS) [µM] | TGI (SNB-19 CNS) | GI50 (RPMI-8226 leukemia) [µM] | TGI (RPMI-8226 leukemia) | GI50 (NCI-H226 lung) [µM] | TGI (NCI-H226 lung) | GI50 (SK-MEL-28 melanoma) [µM] | TGI (SK-MEL-28 melanoma) [µM] | GI50 (T-47D breast) [µM] | TGI (T-47D breast) | GI50 (HS 578T breast) | TGI (HS 578T breast) | GI50 (ACHN renal) [µM] | TGI (ACHN renal)
1 | Cc1cc(Cl)cc(Cc2cc(Cl)cc(C)c2O)c1O | 2940 | 8.09 | 2930 | 11.3 µM | 1.95 | 7.19 µM | 3.32 | 16.8 µM | 1.58 | 9.35 µM | 4.17 | 20.1 µM | 3.46 | 15.2 | 3.64 | > 100 µM | 2.55 µM | 7.75 µM | 2.26 | 7.26 µM
2 | Cc1ccc(OCC2OC(n3cnc4c(Br)nc(Br)nc43)CC2Oc2ccc(C)cc2)cc1 (stereo unspecified) | – | 21.8 | 1610 | 3.99 µM and 4.82 µM | 8.32 | 18.3 µM and 9.29 µM | 11.8 | 22.9 µM and 17.8 µM | 7.52 | 28.7 µM and > 71.3 µM | 1.63 | 33 µM and 3.77 µM | – | 10.1 | 2.48 | 29.7 µM and 6.82 µM | 14.4 µM and 2.96 µM | 36 µM and 7.18 µM | 5.29 | 14.8 µM and 4.93 µM
3 | COC(=O)[C@]12CC[C@@H](C)[C@H](C)[C@@H]1C1=CC[C@@H]3[C@@]4(C)C(C=O)=C[C@@](C)(COC(=O)/C=C/c5ccccc5)[C@@H]4[C@H](O)C[C@@]3(C)[C@]1(C)CC2 | 2480 | 5.97 | 3750 | 16.2 µM | 3.37 | 31.5 µM | 6.47 | > 100 µM | 1.59 | 5.73 µM | 2.36 | 9.66 µM | 2.7 | 7.63 | 4.4 | 84.1 µM | 3.72 µM | 33.8 µM | 2.76 | 9.95 µM
4 | C#Cc1cccc(NC(=O)c2ccc(NC(=O)CCl)cc2)c1 | 15700 | 45 | 14900 | 34.8 µM | 17.2 | > 82.5 µM | 55.6 | > 82.5 µM | 14.7 | 44.1 µM | 48.7 | > 82.5 µM | > 82.5 | > 82.5 | 31.2 | > 82.5 µM | 27.9 µM | > 82.5 µM | 26.3 | > 82.5 µM
5 | CCN(Cc1ccc(F)cc1)c1ccc(CO)c(OC)c1 | 16000 | 46.4 | 22100 | 99.3 µM | 11.6 | > 100 µM | 43.7 | > 100 µM | 15.9 | 50.5 µM | 1.15 | 2.77 µM | 20.2 | > 100 | 6.32 | 33.4 µM | 14.9 µM | > 100 µM | 17.1 | 53.7 µM
6 | C=C1C(=O)O[C@H]2[C@H]1CC/C(COC(=O)NCCCCCCCCNC(=O)OC/C1=C/CC[C@@]3(C)O[C@H]3[C@H]3OC(=O)C(=C)[C@@H]3CC1)=C\CC[C@@]1(C)O[C@@H]21 | 268 | 0.869 | 578 | 2 µM | 1.25 | 3.5 µM | – | – | 0.25 | 0.745 µM | 1.81 | 4.39 µM | 0.206 | 0.511 | 0.323 | 0.915 µM | 1.17 µM | 8.23 µM | 0.258 | 0.662 µM
7 | COc1cc2c(cc1C)NC(=O)/C2=C\c1c[nH]c2ccccc12 | 15900 | 45.5 | 13600 | 37.9 µM | 4.12 | 22.9 µM | 16.4 | 41.7 µM | 5.95 | 63 µM | 15.1 | 41.6 µM | 21.7 | 69.5 | 13.2 | 45.8 µM | 14.5 µM | 47.9 µM | 11.5 | 27.3 µM
8 | COc1ccc(N(C)c2nc(Cl)nc3cnn(C)c23)cc1 | < 10 | < 0.0222 | < 10 | > 100 µM | < 0.01 | > 100 µM | < 0.0131 | > 100 µM | < 0.0177 | > 100 µM | < 0.01 | > 100 µM | 12.8 | > 100 | < 0.01 | > 100 µM | < 0.01 µM | > 100 µM | < 0.0145 | > 100 µM
9 | Cc1ccc(S(=O)(=O)N2CCc3ccc(O)c4c3C2Cc2ccc3c(c2-4)OCO3)cc1 (stereo unspecified) | 398 | 5.56 | 464 | 5.92 µM | 0.288 | 9.59 µM | 1.4 | > 100 µM | 0.959 | 5.08 µM | 4.71 | 34.3 µM | 0.668 | 18.6 | 0.968 | 51 µM | 1.06 µM | > 50.6 µM | 0.769 | > 60.8 µM
10 | [CH3][Sn]([CH3])([CH3])[O][N+](=O)[O-] | 4030 | > 10 | 1450 | 2.77 µM | > 10 | > 10 µM | > 10 | > 10 µM | 4.98 | > 10 µM | 3.5 | 7.39 µM | > 10 | > 10 | 4.09 | > 10 µM | 1.73 µM | > 10 µM | > 10 | > 10 µM
11 | CCCCCCCC(=O)[O][Hg][CH2]C1COC([CH2][Hg][O]C(=O)CCCCCCC)CO1 (stereo unspecified) | 2770 | > 100 | 15200 | 28.6 µM | 15.3 | 34.6 µM | 16.1 | 29.5 µM | 3.84 | > 100 µM | – | – | 14 | 27 | 13.1 | 46.9 µM | 16.8 µM | 46.3 µM | 13.9 | 26.9 µM
12 | N#CC1C(=O)NC(c2ccccc2[N+](=O)[O-])c2sc3c(F)cccc3c21 (stereo unspecified) | 14200 | 54.3 | 1160 | 62.6 µM | 1.62 | 94.9 µM | 22.1 | > 100 µM | 5.67 | > 60.3 µM | 0.273 | 2.55 µM | 29.5 | > 100 | 0.241 | 20.7 µM | 15.2 µM | 69.9 µM | 15.7 | > 100 µM
13 | CN1CCN(Cc2ccc(NC(=O)c3cncc(C#Cc4cnc(N)c5cnccc45)c3)cc2C(F)(F)F)CC1 | 92.6 | 0.585 | 209 | 7.62 µM | 0.233 | 1.71 µM | 1.76 | 10.9 µM | 0.216 | 3.25 µM | 0.115 | 4.54 µM | 0.0937 | 0.394 | 0.41 | 9.13 µM | 0.122 µM | 0.7 µM | 0.201 | 1.43 µM
14 | COc1ccc(OC)c(/C=C/c2nc(SCc3ccccc3)n(-c3ccc(Cl)cc3)n2)c1 | 3140 | 9.86 | 5350 | > 100 µM | 3.92 | > 100 µM | 14.3 | > 100 µM | 7.39 | > 100 µM | 27.8 | > 100 µM | 28.5 | > 100 | 11.5 | 84.6 µM | 5.23 µM | > 100 µM | 23.2 | > 100 µM
15 | Cc1nccc2c3ccc(OCc4cn(-c5ccc(Cl)cc5)nn4)cc3n(CC(C)C)c12 | 886 | 2.07 | 2620 | 13.3 µM | 5.09 | 14.4 µM | 4.5 | > 33.3 µM | 1.09 | 3.95 µM | 3.47 | 13.7 µM | 4.14 | 18.2 | 1.34 | 11.3 µM | 2.62 µM | 30.1 µM | 3.62 | 9.59 µM
16 | CCCN1CCC(c2ccc(Nc3nc(Nc4cc(F)ccc4C(N)=O)c4cc[nH]c4n3)c(OC)c2)CC1 | 56.5 | 5.81 | 509 | 1.97 µM | 4 | 7.55 µM | 4.15 | 9.73 µM | 3.68 | 12.1 µM | 3.83 | 8.91 µM | 4.19 | 8.1 | 4.14 | 9.17 µM | 3.84 µM | 12.3 µM | 3.13 | 7.03 µM
17 | CCCCCC[C@H](C)NC(=O)c1ccc(Nc2nc3ccccc3c3occc23)cc1 | 4470 | 48.9 | 19000 | > 100 µM | 3.99 | 7.69 µM | 5.15 | > 100 µM | 4.03 | > 100 µM | – | – | 5.41 | > 100 | 1.2 | 6.31 µM | 4.68 µM | 67.6 µM | 13.7 | 40 µM
18 | CN(C)c1ccc(N=C2C=CC(=O)c3ccccc32)cc1 | 2150 | 4.52 | 2470 | 7.9 µM | 1.8 | 4.86 µM | 3.42 | 13.9 µM | 2.92 | 19.7 µM | 18.2 | 54 µM | 2.38 | 5.73 | 2.27 | 6.01 µM | 1.97 µM | 6.09 µM | 4.1 | 18.4 µM
19 | COc1cc(/C=C/C(=O)c2c(C)nc3ccccc3c2C)ccc1OCCCN1CCN(C(=O)c2ccco2)CC1 | 2720 | 5.63 | 7950 | 20.6 µM | 12.8 | 27.6 µM | 11.9 | 31.1 µM | 1.92 | 11.9 µM | 13.7 | 29.9 µM | 12.7 | 25.3 | 2.5 | 15 µM | 12 µM | 51.8 µM | 10.2 | 25.1 µM
20 | COc1cc(/C=C2\C[C@H]3[C@@H]4CC=C5C[C@@H](OC(C)=O)CC[C@]5(C)[C@H]4CC[C@]3(C)[C@H]2OC(C)=O)ccc1OCCN1CCCC1 | 10300 | 20.6 | – | – | – | – | 10.9 | 22.5 µM | 1.07 | 13.4 µM | 9.67 | 18.6 µM | 12.8 | > 50 | 12.4 | 32 µM | 9.32 µM | 18.8 µM | – | –
21 | CSc1ccc(C(=O)/C=C/c2ccccc2Cl)cc1 | 19500 | 90.3 | 4750 | 17.2 µM | 22.2 | 45.2 µM | 26.5 | 61.2 µM | 7.11 | 37.7 µM | 15.8 | 37.6 µM | 23.4 | 52.9 | 23.5 | > 100 µM | 21.9 µM | 55.6 µM | 15 | 28.5 µM
22 | O=c1c(Cl)cc2nc3ccccc3sc-2c1Cl | – | 38.4 | – | 43.2 µM | – | 32.7 µM | – | 32.9 µM | – | 25.9 µM | – | 32.3 µM | – | 35.2 | – | > 100 µM | – | > 100 µM | – | 30.2 µM
23 | O=C1NC(c2cccc(OCc3ccccc3)c2)Nc2ccccc21 (stereo unspecified) | – | < 0.0428 | – | 4.25 µM | – | 0.896 µM | – | > 100 µM | – | 1.07 µM | – | 2.44 µM | – | > 85.7 | – | > 90.1 µM | – | 9.83 µM | – | 28.7 µM
24 | CC1=C([Se]CC(OC(=O)[C@@H](CO)NC(=O)OC(C)(C)C)C(=O)NCCCCCC(=O)OCc2ccccc2)C(=O)c2ccccc2C1=O (stereo partly specified) | 2030 | 4.82 | 940 | 2.17 µM | 1.29 | 2.55 µM | 0.774 | 2.11 µM | 2.18 | 5.83 µM | 2.25 | 4.41 µM | 1.79 | 3.21 | 1.62 | 3.95 µM | 1.99 µM | 4.64 µM | 1.65 | 3.07 µM
25 | COc1ccc2c(c1OC(C)=O)C1=CC(=O)CCC13CCNC3C2 (stereo unspecified) | – | > 100 | – | > 100 µM | – | > 100 µM | – | > 100 µM | – | > 100 µM | – | > 100 µM | – | > 100 | – | > 100 µM | – | > 100 µM | – | > 100 µM
